According to paper PMC6349357, “Computational and experimental analysis of bioactive peptide linear motifs in the integrin adhesome” (PLoS ONE, 2019):
Marks after values point to notes of the source that are not given here.

Experiments:
resting platelets = assay: Platelet aggregation induced by peptide in resting washed platelets (activation); assay type: cell-based, human (healthy volunteers); details: for Activation, donor 14 06 13: replicate 14_06_13; for Activation, donor 14 06 13 / Activation, donor 18_06_13 / Activation, donor 20_06_13 / Activation, donor 20 08 13 / Activation, donor 22_08_13_DONOR1 / Activation, donor 22_08_13_DONOR2: SDC4 peptides and controls, 20 μM; for Activation, donor 14 06 13 / Activation, donor 20 08 13 / Activation, 5μM / Activation, 20μM / Activation: unit assumed; for Activation, donor 18_06_13: replicate 18_06_13; for Activation, donor 18_06_13 / Activation, donor 20_06_13: in % (unit assumed); for Activation, donor 20_06_13: replicate 20_06_13; for Activation, donor 20 08 13: replicate 20_08_13; for Activation, donor 22_08_13_DONOR1: replicate 22_08_13_DONOR1; for Activation, donor 22_08_13_DONOR2: replicate 22_08_13_DONOR2; for Activation, 5μM / Activation, 20μM: S3 Table, n=3; for Activation, 5μM: peptide 5 μM; for Activation, 20μM: peptide 20 μM; for Activation: platelet aggregation in resting platelets after 6 minutes incubation with peptide, pal-peptides 20 μM, tat-peptides 50 μM, optical density, aggregometer, mean, n>=3; for Aggregation before TRAP activation, donor h: replicate donor h; for Aggregation before TRAP activation, donor h / Aggregation before TRAP activation, donor i / Aggregation before TRAP activation, donor j: pal 20 μM, tat 50 μM; for Aggregation before TRAP activation, donor i: replicate donor i; for Aggregation before TRAP activation, donor j: replicate donor j
Description: (§1) Blood was drawn from healthy volunteers into a syringe containing a final volume of 15% Acid Citrate Dextrose (ACD). The blood/ACD mixture was then aliquoted into 15 ml Cellstar tubes, at volumes of 5ml per tube, and centrifuged at 150 rcf for 10 minutes to obtain platelet rich plasma (PRP). PRP was then transferred to a 50ml tube using a pipette. The pH was then adjusted to 6.5. Prostaglandin (PGE1) was then added with a final concentration of 1μM. The PRP was then centrifuged at 750 rcf. After centrifugation the platelet poor plasma (PPP) was discarded and the pellet was resuspended in buffer A (6 mM dextrose, 130 mM NaCl, 9 mM NaHCO3, 10 mM sodium citrate, 10 mM Tris base, 3 mM KCl, 0.81 mM KH2PO4 and 0.9 mM MgCl26H2O, pH 7.4). A platelet concentration of 3x10^5/μl or 1x10^6/μl was obtained by dilution depending on the experiment in which they were used. Platelets were left to rest for 45 minutes and supplemented with 1.8mM calcium chloride prior to use.
(§2) A platelet concentration of 3x10^5 /μl was used when performing standard aggregations and a concentration of 1x10^6 /μl was used for sample preparation for western blot analysis. The extent of platelet aggregation was measured by quantifying the optical density of the samples using the Bio-Data PAP-8 aggregometer (platelet aggregation profiler, Horsham, PA, USA). A temperature of 37°C was maintained and samples were stirred using magnets spinning at 1100 rpm. 200 μl of washed platelets was added to each aggregation tube. Different volumes of buffer, peptide and TRAP were added to achieve the desired concentrations. Peptide/buffer was added to each well after two minutes. TRAP, with a final concentration depending on the experiment, was added 6 minutes later and data was collected for an additional 7 minutes.

TRAP-activated platelets = assay: Inhibition of TRAP-induced platelet aggregation after pre-incubation with peptide; assay type: cell-based, human (healthy volunteers); details: for Summary of effects of SDC4-derived palmitylated peptides and scrambled controls, 20μM: S2 Table B / S2 Fig, activation of resting platelets and inhibition of aggregation induced by 4 μM TRAP, in words; for Inhibition, donor 14_06_13: replicate 14_06_13; for Inhibition, donor 18_06_13: replicate 18_06_13; for Inhibition, donor 20_06_13: replicate 20_06_13; for Inhibition, donor 20_08_13: replicate 20_08_13; for Aggregation after TRAP activation, donor h: replicate donor h; for Aggregation after TRAP activation, donor h / Aggregation after TRAP activation, donor i / Aggregation after TRAP activation, donor j: pal 20 μM, tat 50 μM; for Aggregation after TRAP activation, donor i: replicate donor i; for Aggregation after TRAP activation, donor j: replicate donor j; for Aggregation after TRAP, peptide alone 1x (A 1x / B 1x) / Aggregation after TRAP, peptide alone 2x (A 2x / B 2x): TRAP 2 μM after 6 minutes pre-incubation, mean n = 3; for Aggregation after TRAP, peptide alone 1x (A 1x / B 1x): 4 μM pal-peptides, 10 μM tat-peptides; for Aggregation after TRAP, peptide alone 2x (A 2x / B 2x): double concentration of 4 μM (pal) / 10 μM (tat)
Description: as §1, §2

[1] = replicate 22_08_13_DONOR1, peptide 20 μM, TRAP 4 μM
[2] = replicate 22_08_13_DONOR2, peptide 20 μM, TRAP 4 μM
[3] = S3 Table, peptide 5 μM, aggregation after TRAP, n=3
[4] = S3 Table, peptide 20 μM, aggregation after TRAP, n=3
[5] = platelet aggregation induced by 4 μM TRAP in platelets pre-incubated with peptide (low value = inhibition), pal-peptides 20 μM, tat-peptides 50 μM, mean, n>=3

Substance: YKDSMERDKGK [pal-SDC4_JM Control 1, scrambled control of pal-SDC4_JM, reference compound]
- Effects on activation of aggregation at 1, 5 and 20 μM (resting platelets; S2 Fig A legend, three doses 1, 5, 20 μM): activatory effects
- Activation, donor 14 06 13 (resting platelets): 69%
- Activation, donor 18_06_13 (resting platelets): 68
- Activation, donor 20_06_13 (resting platelets): 66
- Activation, donor 20 08 13 (resting platelets): 70%
- Activation, donor 22_08_13_DONOR1 (resting platelets): 71
- Activation, donor 22_08_13_DONOR2 (resting platelets): 65
- Summary of effects of SDC4-derived palmitylated peptides and scrambled controls, 20μM (TRAP-activated platelets): Activator
- Inhibition, donor 14_06_13 (TRAP-activated platelets; peptide 20 μM, TRAP 4 μM): 76
- Inhibition, donor 18_06_13 (TRAP-activated platelets; peptide 20 μM, TRAP 4 μM): 72
- Inhibition, donor 20_06_13 (TRAP-activated platelets; peptide 20 μM, TRAP 4 μM): 71
- Inhibition, donor 20_08_13 (TRAP-activated platelets; peptide 20 μM, TRAP 4 μM): 71
- Platelet aggregation remaining after TRAP (low = inhibition) (TRAP-activated platelets; [1]): 68
- Platelet aggregation remaining after TRAP (low = inhibition) (TRAP-activated platelets; [2]): 70

Substance: pal-KVGFFKR-TLELDRLMASLS [B20p ITGA2b-JM U TGFB1I1-LD, palmitylated chimeric peptide]
- Activation, 5μM (resting platelets): 2%
- Activation, 20μM (resting platelets): 2%
- Platelet aggregation remaining after TRAP (low = inhibition) (TRAP-activated platelets; [3]): 71
- Platelet aggregation remaining after TRAP (low = inhibition) (TRAP-activated platelets; [4]): 66

Substance: SSTLSKKRPPPPPPGHKRTLSD-tat-(NH2) [AMAP1-tat, ASAP1/DDEF2 peptide with C-terminal tat]
- Activation (resting platelets): 4%
- Aggregation before TRAP activation, donor h (resting platelets): 4
- Aggregation before TRAP activation, donor i (resting platelets): 3
- Aggregation before TRAP activation, donor j (resting platelets): 5
- Platelet aggregation remaining after TRAP (low = inhibition) (TRAP-activated platelets; [5]): 72
- Aggregation after TRAP activation, donor h (TRAP-activated platelets; TRAP 4 μM): 76
- Aggregation after TRAP activation, donor i (TRAP-activated platelets; TRAP 4 μM): 62
- Aggregation after TRAP activation, donor j (TRAP-activated platelets; TRAP 4 μM): 79

Substance: pal-LGKKPIYKK-(NH2) [pal-SDC4_middle, N-terminally palmitylated syndecan-4 middle (variable) region peptide]
- Activation, 5μM (resting platelets; listed as A8p SDC4-middle): 2%
- Activation, 5μM (resting platelets; listed as Variable (B)): 1%
- Activation, 20μM (resting platelets): 1%
- Activation (resting platelets): 0%
- Activation, donor 14 06 13 (resting platelets): 1%
- Activation, donor 18_06_13 (resting platelets): -1
- Activation, donor 20_06_13 (resting platelets): 2
- Activation, donor 20 08 13 (resting platelets): 0%
- Activation, donor 22_08_13_DONOR1 (resting platelets): 1
- Activation, donor 22_08_13_DONOR2 (resting platelets): 0
- Aggregation before TRAP activation, donor h (resting platelets): 1
- Aggregation before TRAP activation, donor i (resting platelets): 0
- Aggregation before TRAP activation, donor j (resting platelets): 1
- Aggregation (inhibition effects of syndecan-derived peptides) (TRAP-activated platelets; S2 Table A, peptide 20 μM, TRAP 4 μM, mean, n=6): 26
- Summary of effects of SDC4-derived palmitylated peptides and scrambled controls, 20μM (TRAP-activated platelets): Inhibitor
- Platelet aggregation remaining after TRAP (low = inhibition) (TRAP-activated platelets; S3 Table, peptide 5 μM, aggregation after TRAP, n=3, listed as A8p SDC4-middle): 72
- Platelet aggregation remaining after TRAP (low = inhibition) (TRAP-activated platelets; S3 Table, peptide 5 μM, aggregation after TRAP, n=3, listed as Variable (B)): 59
- Platelet aggregation remaining after TRAP (low = inhibition) (TRAP-activated platelets; S3 Table, peptide 20 μM, aggregation after TRAP, n=3, listed as A8p SDC4-middle): 41
- Platelet aggregation remaining after TRAP (low = inhibition) (TRAP-activated platelets; S3 Table, peptide 20 μM, aggregation after TRAP, n=3, listed as Variable (B)): 26
- Aggregation after TRAP, peptide alone 1x (A 1x / B 1x) (TRAP-activated platelets): 31.67
- Aggregation after TRAP, peptide alone 2x (A 2x / B 2x) (TRAP-activated platelets): 1.67
- Platelet aggregation after TRAP activation (TRAP-activated platelets; [5]): 3 ^*
- Inhibition, donor 14_06_13 (TRAP-activated platelets; peptide 20 μM, TRAP 4 μM): 60
- Inhibition, donor 18_06_13 (TRAP-activated platelets; peptide 20 μM, TRAP 4 μM): 23
- Inhibition, donor 20_06_13 (TRAP-activated platelets; peptide 20 μM, TRAP 4 μM): 51
- Inhibition, donor 20_08_13 (TRAP-activated platelets; peptide 20 μM, TRAP 4 μM): 7
- Platelet aggregation remaining after TRAP (low = inhibition) (TRAP-activated platelets; [1]): 3
- Platelet aggregation remaining after TRAP (low = inhibition) (TRAP-activated platelets; [2]): 14
- Aggregation after TRAP activation, donor h (TRAP-activated platelets; TRAP 4 μM): 3
- Aggregation after TRAP activation, donor i (TRAP-activated platelets; TRAP 4 μM): 2
- Aggregation after TRAP activation, donor j (TRAP-activated platelets; TRAP 4 μM): 4

Substance: pal-KVGFFKR-RMKKKDEGSYD [B17p ITGA2b-JM2 U SDC4-JM, palmitylated chimeric peptide]
- Activation, 5μM (resting platelets): 1%
- Activation, 20μM (resting platelets): 2%
- Platelet aggregation remaining after TRAP (low = inhibition) (TRAP-activated platelets; [3]): 66
- Platelet aggregation remaining after TRAP (low = inhibition) (TRAP-activated platelets; [4]): 11

Substance: tat-EGERALPSIPKLAN-(NH2) [tat-FAK_1, tat peptide from PTK2/FAK1]
- Activation (resting platelets): 4%
- Aggregation before TRAP activation, donor h (resting platelets): 4
- Aggregation before TRAP activation, donor i (resting platelets): 4
- Aggregation before TRAP activation, donor j (resting platelets): 4
- Platelet aggregation remaining after TRAP (low = inhibition) (TRAP-activated platelets; [5]): 72
- Aggregation after TRAP activation, donor h (TRAP-activated platelets; TRAP 4 μM): 76
- Aggregation after TRAP activation, donor i (TRAP-activated platelets; TRAP 4 μM): 66
- Aggregation after TRAP activation, donor j (TRAP-activated platelets; TRAP 4 μM): 74

Substance: pal-FAKFEEERAR-(NH2) [pal-ITGB3_middle1, N-terminally palmitylated ITGB3 peptide …]
- Activation, 5μM (resting platelets): 2%
- Activation, 20μM (resting platelets): 2%
- Activation (resting platelets): 0%
- Aggregation before TRAP activation, donor h (resting platelets): 1
- Aggregation before TRAP activation, donor i (resting platelets): 1
- Aggregation before TRAP activation, donor j (resting platelets): 0
- Platelet aggregation remaining after TRAP (low = inhibition) (TRAP-activated platelets; [3]): 73
- Platelet aggregation remaining after TRAP (low = inhibition) (TRAP-activated platelets; [4]): 68
- Aggregation after TRAP, peptide alone 1x (A 1x / B 1x) (TRAP-activated platelets): 67.67
- Aggregation after TRAP, peptide alone 2x (A 2x / B 2x) (TRAP-activated platelets): 43.67
- Platelet aggregation remaining after TRAP (low = inhibition) (TRAP-activated platelets; [5]): 45
- Aggregation after TRAP activation, donor h (TRAP-activated platelets; TRAP 4 μM): 64
- Aggregation after TRAP activation, donor i (TRAP-activated platelets; TRAP 4 μM): 60
- Aggregation after TRAP activation, donor j (TRAP-activated platelets; TRAP 4 μM): 12

Substance: tat-EPDFPPPPPDLE-(NH2) [tat-VCL, tat peptide from VCL]
- Activation (resting platelets): 4%
- Aggregation before TRAP activation, donor h (resting platelets): 4
- Aggregation before TRAP activation, donor i (resting platelets): 4
- Aggregation before TRAP activation, donor j (resting platelets): 4
- Platelet aggregation remaining after TRAP (low = inhibition) (TRAP-activated platelets; [5]): 70
- Aggregation after TRAP activation, donor h (TRAP-activated platelets; TRAP 4 μM): 68
- Aggregation after TRAP activation, donor i (TRAP-activated platelets; TRAP 4 μM): 67
- Aggregation after TRAP activation, donor j (TRAP-activated platelets; TRAP 4 μM): 77

Substance: pal-KVGAAKR-RMKKKDEGSYD [B16p ITGA2b-JM U SDC4-JM, palmitylated chimeric peptide]
- Activation, 5μM (resting platelets): 3%
- Activation, 20μM (resting platelets): 0%
- Platelet aggregation remaining after TRAP (low = inhibition) (TRAP-activated platelets; [3]): 72
- Platelet aggregation remaining after TRAP (low = inhibition) (TRAP-activated platelets; [4]): 4

Substance: pal-KVGAAKR-WEQLLTTIARTINEVENQI [B13p ITGA2b-JM2 U ACTN1-VBS, palmitylated chimeric peptide]
- Activation, 5μM (resting platelets): 3%
- Activation, 20μM (resting platelets): 12%
- Platelet aggregation remaining after TRAP (low = inhibition) (TRAP-activated platelets; [3]): 75
- Platelet aggregation remaining after TRAP (low = inhibition) (TRAP-activated platelets; [4]): 63
